In patent US4243678A, “Acylhydrocarbylaminoalkanoic acids, compositions and uses” (Byk Gulden Lomberg Chemische Fabrik GmbH, priority 1977, dated 1981):
Read-outs that look alike come from different tables or passages of the source.

Key:
pancreatic secretion = assay: Influence on pancreatic secretion of the narcotized rat; assay type: in vivo, rat (male Sprague-Dawley); conditions: 0.5 h
[1] = as above; assay type: in vivo, rat (male Sprague-Dawley); conditions: in vivo, LD50 mouse i.p. / ED50 rat i.d.
[2] = Antihepatotoxic effect: duration of hexobarbital sleep of the rat after liver damage by CCl4; conditions: rat, in vivo
Procedure: (§1) The compounds to be tested are administered 1 hour prior to the administration of CCl4 orally in a liquid volume of 10 ml/kg.
(§2) The antihepatotoxic effect of the compounds to be tested (sodium salts in aqueous solution) is determined by the reduction of the prolongation of sleeping period caused by the CCl4 liver cell damage in the groups treated, as compared with the prolongation of the sleeping period of the CCl4 control group (=100%). […]

liver damage by CCl4 = assay: as above; conditions: Rattus norvegicus, po; for ED25: read-out: ED25 antihepatotoxic effect (shortens hexobarbital narcosis by 25%)
Procedure: as §1, §2

bile secretion = assay: Influence on bile secretion (choleresis) of the narcotized rat; assay type: in vivo, rat (male Sprague-Dawley); conditions: 0.5 h, liquid volume
Excerpt: (§3) Male Sprague-Dawley rats (body weight from 250 to 300 g) are narcotized with 1.2 g/kg urethane i.m. Then the abdominal cavity is opened medially, the bile duct is ligatured shortly above the place where it leads into the duodenum and also near to the hepatic duct, and both sections are catheterized towards the liver.
(§4) As in the rat all the pancreatic ducts lead out into the central section of the bile duct; it is possible in this way to discharge the pancreatic secretion separately from the distal (ligatured) section and the bile separately from the proximal section of the bile duct.
(§5) The quantities of pancreatic juice and bile juice obtained are measured at intervals of 30 minutes over a period from 2 hours before to 3 hours after the intraduodenal (V. jugularis externa) administration of the compounds to be tested (quantity of liquid administered 5 ml/kg).
(§6) The body temperature of the animals is maintained at 36° to 38° C. by means of electric blankets and radiation; the temperature is monitored rectally.
(§7) The liquid volumes of the 30-minute fractions after the administration of the substance are related in each case to the quantity of bile or pancreatic juice secreted prior to the application of the substance (=100%, mean of the last two measurements). The maximum percentage increase in the pancreatic or bile secretion is represented in dependence upon dose, and from this the ED50 is determined by interpolation.

[3] = as above; assay type: in vivo, rat (male Sprague-Dawley); conditions: in vivo, LD50 mouse i.p. / ED50 rat i.d.
Excerpt: as §3, §4, §5, §6, §7

[4] = Determination of toxicity (lethal action on the mouse after intraperitoneal application); assay type: in vivo; conditions: in vivo, ip
Procedure: (§8) The toxicity investigations are carried out on female NMRI mice (body weight 22 to 26 g). The animals (5 animals per dose) are given food and water ad lib. Different doses of the substances are administered intraperitoneally. The duration of observation is 14 days. The LD50, i.e. the dose at which 50% of the animals die, is determined graphically from the dose/effect curve.

[5] = system: glucose formation from lactate and pyruvate in isolated perfused liver; assay: Inhibition of the formation of glucose from lactate and pyruvate in the isolated perfused rat liver; parameters: species or system rat (male Sprague-Dawley); conditions: Table XIII
Summary of the method: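 Livers of male Sprague-Dawley rats (160 to 200 g), fasted 20 to 22 h, were perfused via the portal vein with Krebs-Henseleit bicarbonate buffer pH 7.4 containing 1.6 mmol/liter L-lactate and 0.2 mmol/liter pyruvate. Compounds were infused in rising concentrations (0.02 to 1.00 mmol/liter), 16 min each; effluent glucose was measured enzymatically and expressed relative to lactate/pyruvate-driven change (100%).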

mouse = assay: Determination of toxicity (lethal action on the mouse after intraperitoneal application); assay type: in vivo; conditions: mouse, i.p.; Table XIII; 20160 min
Procedure: as §8

[6] = Antiulcerogenic (stomach-protective) action, pylorus ligature and acetylsalicylic acid; assay type: in vivo, rat (female); conditions: in vivo; LD50 mouse i.p. / ED50 rat i.d.; Table IV; read-out: TQ (LD50/ED50), antiulcerogenic action
Procedure: (§9) The ulcer provocation is carried out on rats which have been made to fast for 24 hours (female, 180 to 200 g) by ligature of the pylorus (under ether narcosis) and the oral application of 100 mg/10 ml/kg acetylsalicylic acid. The administration of the substances was carried out intraduodenally (2.5 ml/kg) immediately after the ligature of the pylorus. The closure of the wound was carried out by means of Michel clamps. 4 hours after this, the animals were autopsied (while inebriated with ether) by dislocation of the atlas, and the stomach was resected. The stomach, opened longitudinally, is fixed on a cork board and, using a stereomicroscope with an enlargement of 10×, the number and size (=diameter) of any ulcers present were determined. The product of the degree of severity (according to the following scale of points) and the number of ulcers was used as the individual ulcer index.
(§10) As a measure of antiulcerogenic effect the reduction in the mean ulcer index of each treated group, as compared with that of the control group (=100%), was used.

stomach ulcer = assay: as above; assay type: in vivo, rat (female); conditions: 4 h; rat, intraduodenally; Table IV; read-out: ED50 antiulcerogenic action (dose which reduces the mean ulcer index by 50%)
Procedure: as §9, §10

[7] = Rattus norvegicus, read-out: ED50 pancreatic secretion (dose which brings about an increase in the pancreatic secretion by a maximum of 50%)
[8] = Table I, read-out: TQ (LD50/ED50), pancreatic secretion
[9] = TQ (LD50/ED50), antihepatotoxic effect, LD50 mouse i.p. / ED50 rat p.o., Table III
[10] = read-out: ED50 antihepatotoxic effect (dose which shortens the hexobarbital narcosis by 50%)
[11] = narcotized rat, i.d., 30 min fraction, Table II, read-out: ED50 bile secretion (dose which brings about an increase in the bile secretion by a maximum of 50%)
[12] = Table II, read-out: TQ (LD50/ED50), bile secretion
[13] = read-out: ED50 antihepatotoxic effect (shortens hexobarbital narcosis by 50%)
[14] = TQ LD50/ED25, antihepatotoxic effect, LD50 mouse i.p. / ED25 rat p.o., Table V
[15] = TQ LD50/ED50, antihepatotoxic effect, LD50 mouse i.p. / ED50 rat p.o., Table V
[16] = narcotized rat i.d., 30 min fraction, Table VI, read-out: ED50 bile secretion (dose which brings about an increase in the bile secretion by a maximum of 50%)
[17] = Table VI, read-out: TQ (LD50/ED50), bile secretion
[18] = narcotized rat, i.d., liquid volume, 30 min fraction, Table VII, read-out: ED50 pancreatic secretion (dose which brings about an increase in pancreatic secretion of a maximum of 50%)
[19] = Table VII, read-out: TQ [LD50/ED50], pancreatic secretion

Structure (SMILES)	ED50 (pancreatic secretion; [7]) [mg/kg]	selectivity ratio [1, 8]	selectivity ratio [2, 9]	ED50 (liver damage by CCl4; [10]) [mg/kg]	ED50 (bile secretion; [11]) [mg/kg]	selectivity ratio [3, 12]	LD50 at 336 h ([4]; mouse, Table I) [mg/kg]	other results
COc1ccc(CCN(CCCC(=O)O)C(=O)c2ccc(Cl)cc2)cc1OC [Serial No. 9, N-(p-chloro)benzoyl-4-homoveratrylaminobutyric acid]	5	156	7.8	100	18	43	780	–
COc1cc(C(=O)N(CCCC(=O)O)c2cccc3ccccc23)cc(OC)c1OC [Serial No. 40, 4-{3,4,5-trimethoxy-[N-(α-naphthyl)]benzamido}butyric acid]	–	–	–	–	–	–	–	selectivity ratio ([2]; TQ LD50/ED25, antihepatotoxic effect, LD50 mouse i.p. / ED25 rat p.o., Table XI): 21.2; selectivity ratio ([2]; TQ LD50/ED50, antihepatotoxic effect, LD50 mouse i.p. / ED50 rat p.o., Table XI): ≤ 12; ED25 (liver damage by CCl4): 17 mg/kg; ED50 (liver damage by CCl4; [13]): ≥ 30 mg/kg; ED50 (bile secretion; narcotized rat i.d., 30 minute fraction, Table XII, read-out: ED50 bile secretion (dose which brings about an increase in bile secretion by a maximum of 50%)): 8 mg/kg; selectivity ratio ([3]; Table XII, read-out: TQ LD50/ED50, bile secretion): 45; LD50 at 336 h ([4]; mouse i.p., Table XI): 360 mg/kg
CC(=O)N(CCCC(=O)O)C(c1ccccc1)c1ccccc1 [Serial No. 14, N-acetyl-4-benzhydrylaminobutyric acid]	~5	~220	110	10	5	220	1100	–
C#CC1(N(CCCC(=O)O)C(=O)c2ccc(Cl)cc2)CCCCC1 [Serial No. 5, N-(p-chloro)benzoyl-4-[(1-ethynylcyclohexyl-1)-amino]butyric acid]	2	95	–	–	6	32	190	–
CC(c1ccccc1)N(CCCC(=O)O)C(=O)c1ccc(Cl)cc1 (racemic) [Serial No. 10, N-(p-chloro)benzoyl-4-(1-phenylethylamino)butyric acid]	~20	~60	~120	~10	~15	~80	1200	–
CC(C)(C)CC(C)(C)N(CCCC(=O)O)C(=O)c1ccc(F)cc1 [Serial No. 16, N-(p-fluoro)benzoyl-4-(1,1,3,3-tetramethylbutyl)aminobutyric acid]	~10	~40	–	–	7	57	400	–
CC(C)C(=O)N(CCCC(=O)O)C1CCCc2ccccc21 (stereo not shown) [Serial No. 50, 4-[N-(1,2,3,4-tetrahydro-1-naphthyl)isobutyramido]butyric acid]	–	–	–	–	–	–	–	ED50 (pancreatic secretion; narcotized rat, i.d., liquid volume, 30 minute fraction, Table X, read-out: ED50 pancreatic secretion (dose which brings about an increase in pancreatic secretion by a maximum of 50%)): ~3 mg/kg; selectivity ratio ([1]; Table X, read-out: TQ LD50/ED50, pancreatic secretion): ≥ 66.7; Glucose formation, % change ([5]; 0.2 mmol/liter in the perfusate, isolated perfused liver of fasting rats): -33%; ED50 inhibition of formation of glucose from lactate and pyruvate ([5]; from 4 concentrations, 0.02 to 1.00 mmol/liter): 97 µg/mL; LD50 at 336 h ([4]; mouse i.p., Table X): > 200 mg/kg; LD50 (i.p.) (mouse): > 200 mg/kg
CC=CC(=O)N(CCCC(=O)O)c1ccccc1-c1ccccc1 [Serial No. 27, 4-[N-(biphenyl-2-yl)crotonoylamido]butyric acid]	–	–	–	–	–	–	–	selectivity ratio [2, 14]: 188; selectivity ratio [2, 15]: 107; ED25 (liver damage by CCl4): 1.6 mg/kg; ED50 (liver damage by CCl4; [13]): 2.8 mg/kg; ED50 (bile secretion; [16]): 10 mg/kg; selectivity ratio [3, 17]: 30; selectivity ratio [6]: ~5.5; ED50 (stomach ulcer): ~55 mg/kg; LD50 at 336 h ([4]; mouse, Table IV): 300 mg/kg
CC(=O)N(CCCC(=O)O)c1ccccc1-c1ccccc1 [Serial No. 22, 4-[N-(biphenyl-2-yl)acetamido]butyric acid]	–	–	–	–	–	–	–	ED50 (pancreatic secretion; [18]): ~2 mg/kg; selectivity ratio [1, 19]: ~375; selectivity ratio [2, 14]: > 250; selectivity ratio [2, 15]: 50; ED25 (liver damage by CCl4): < 3 mg/kg; ED50 (liver damage by CCl4; [13]): 15 mg/kg; ED50 (bile secretion; [16]): 8 mg/kg; selectivity ratio [3, 17]: 93.8; selectivity ratio [6]: 13.6; ED50 (stomach ulcer): 55 mg/kg; LD50 at 336 h ([4]; mouse, Table IV): 750 mg/kg
O=C(O)CCCN(C(=O)c1ccc(Cl)cc1)C(Cc1ccccc1)c1ccccc1 (stereo not shown) [Serial No. 17, N-(p-chloro)benzoyl-4-[(1,2-diphenylethyl)amino]butyric acid]	~1	~160	16	10	5	32	160	–
COc1ccc(Cl)cc1C(=O)N(CCCC(=O)O)c1ccc(OC)c(-c2ccccc2)c1 [Serial No. 36, 4-[2-methoxy-5-chloro-N-(6-methoxybiphenyl-3-yl)benzamido]butyric acid]	–	–	–	–	–	–	–	ED50 (pancreatic secretion; [18]): 5 mg/kg; selectivity ratio [1, 19]: 38; ED50 (bile secretion; [16]): 1 mg/kg; selectivity ratio [3, 17]: 190; LD50 at 336 h ([4]; mouse i.p., Table VI): 190 mg/kg
